The text below walks through data of patent US8030354B2, “Substituted biphenyl GPR40 modulators” (Amgen Inc., priority 2007, dated 2011).

GPR40, sequence (O14842 whole entry): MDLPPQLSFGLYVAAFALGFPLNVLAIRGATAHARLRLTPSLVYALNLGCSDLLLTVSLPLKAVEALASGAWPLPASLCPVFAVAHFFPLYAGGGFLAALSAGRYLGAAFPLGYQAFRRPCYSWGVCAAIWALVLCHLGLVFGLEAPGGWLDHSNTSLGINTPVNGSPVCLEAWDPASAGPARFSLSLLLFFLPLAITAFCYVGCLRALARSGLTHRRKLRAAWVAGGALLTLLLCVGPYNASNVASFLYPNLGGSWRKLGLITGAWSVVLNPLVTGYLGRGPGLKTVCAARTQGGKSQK

The experiment concerns the target GPR40 (Homo sapiens, UniProt O14842). Briefly: Cell-based aequorin assay (CHO cells stably expressing GPR40 and aequorin). As to conditions: activation of human GPR40, CHO cells, 0.01% HSA. More on the design: expressed in transfected cells; host or cells: CHO cells stably transfected with GPR40 and aequorin. Put shortly: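 CHO cells stably co-expressing GPR40 and aequorin, loaded with coelenterazine (1 ug/mL, 2 h, room temperature) in H/HBSS with 20 mM Hepes and 0.01% fatty acid-free HSA. Serially diluted compounds added; luminescence recorded over 20 s. EC50 from dose-response of maximum relative light units.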
`COC[C@H](CC(=O)O)c1cccc(OCc2ccc(-c3cc(OC)ccc3F)c(C3=CCCC3(C)C)c2)c1` (single isomer, unassigned) [Example 74, (3R)-3-(3-(((2-(5,5-Dimethyl-1-cyclopenten-1-yl)-2′-fluoro-5′-(methyloxy)-1,1′-biphenyl-4-yl)methyl)oxy)phenyl)-4-(methyloxy)butanoic acid or (3S)-3-(3-(((2-(5,5-dimethyl-1-cyclopenten-1-yl)-2′-fluoro-5′-(methyloxy)-1,1′-biphenyl-4-yl)methyl)oxy)phenyl)-4-(methyloxy)butanoic acid]: the half-maximal effective concentration (EC50) (in general, the concentration giving half of the maximal effect) lay within 1000 to 10000 nM.
As for `CCCC(CC(=O)O)c1cccc(OCc2ccc(-c3cc(OC)ccc3F)c(C3=CCC(C)(C)CC3)c2)c1` (single isomer, unassigned) [Example 67.5, (3R)-3-(3-(((2-(4,4-Dimethyl-1-cyclohexen-1-yl)-2′-fluoro-5′-(methyloxy)-1,1′-biphenyl-4-yl)methyl)oxy)phenyl)hexanoic acid or (3S)-3-(3-(((2-(4,4-dimethyl-1-cyclohexen-1-yl)-2′-fluoro-5′-(methyloxy)-1,1′-biphenyl-4-yl)methyl)oxy)phenyl)hexanoic acid], the figure is 100 to 1000 nM; as for `COc1ccc(F)c(-c2ccc(COc3cccc([C@H](CC(=O)O)C4CC4)c3F)cc2[C@H](O)C2(C)CC2)c1` (single isomer, unassigned) [Example 83.19], 1000 to 10000 nM.
With `COc1ccc(F)c(-c2ccc(COc3cccc(C4(CC(=O)O)CCCCC4)c3)cc2C(C)(C)C)c1` [Example 105.2, {1-[3-(2-tert-Butyl-2′-fluoro-5′-methoxy-biphenyl-4-ylmethoxy)-phenyl]-cyclohexyl}-acetic acid], the EC50 fell in the range of 1000 to 10000 nM.
As for `CCOCc1cc(COc2cccc(C(CC(=O)O)CC3CC3)c2)ccc1-c1cc(OC)ccc1F` (single isomer, unassigned) [Example 69.37, (3R)-4-Cyclopropyl-3-(3-(((2-((ethyloxy)methyl)-2′-fluoro-5′-(methyloxy)-1,1′-biphenyl-4-yl)methyl)oxy)phenyl)butanoic acid or (3S)-4-cyclopropyl-3-(3-(((2-((ethyloxy)methyl)-2′-fluoro-5′-(methyloxy)-1,1′-biphenyl-4-yl)methyl)oxy)phenyl)butanoic acid], the figure is 1000 to 10000 nM; as for `CCOc1cccc(-c2ccc(COc3cccc(C(C)CC(=O)O)c3)cc2C(C)(C)C)c1` (single isomer, unassigned) [Example 64.24, (3R)-3-(3-(((2-(1,1-Dimethylethyl)-3′-(ethyloxy)-1,1′-biphenyl-4-yl)methyl)oxy)phenyl)butanoic acid or (3S)-3-(3-(((2-(1,1-dimethylethyl)-3′-(ethyloxy)-1,1′-biphenyl-4-yl)methyl)oxy)phenyl)butanoic acid], 1000 to 10000 nM; as for `CCCCOc1cc(COc2cccc(C(CCC)CC(=O)O)c2)ccc1-c1cccc(OC)c1` (single isomer, unassigned) [Example 67.13, (3R)-3-(3-(((2-(Butyloxy)-3′-(methyloxy)-1,1′-biphenyl-4-yl)methyl)oxy)phenyl)hexanoic acid or (3S)-3-(3-(((2-(butyloxy)-3′-(methyloxy)-1,1′-biphenyl-4-yl)methyl)oxy)phenyl)hexanoic acid], 100 to 1000 nM.
In the case of `COc1ccc(F)c(-c2ccc(COc3cccc(C(CC(=O)O)CC4CC4)c3)cc2COCC=C(C)C)c1` (single isomer, unassigned) [Example 69.45, (3R)-4-Cyclopropyl-3-(3-(((2′-fluoro-2-(((3-methyl-2-butenyl)oxy)methyl)-5′-(methyloxy)-1,1′-biphenyl-4-yl)methyl)oxy)phenyl)butanoic acid or (3S)-4-cyclopropyl-3-(3-(((2′-fluoro-2-(((3-methyl-2-butenyl)oxy)methyl)-5′-(methyloxy)-1,1′-biphenyl-4-yl)methyl)oxy)phenyl)butanoic acid] it was 1000 to 10000 nM; in that of `CC(=O)c1cccc(-c2ccc(COc3cccc([C@@H](CC(=O)O)C4CC4)c3)cc2[C@H]2CCCC2(C)C)c1` (single isomer, unassigned) [Example 66.74, (S)-3-(3-((S)-3-((S)-2,2-Dimethylcyclopentyl)-4-(3-acetylphenyl)benzyloxy)phenyl)-3-cyclopropylpropanoic acid or stereoisomer thereof], 1000 to 10000 nM; in that of `CCCCOc1cc(COc2cccc(CCC(=O)O)c2)ccc1-c1cc(OC)ccc1F` [Example 13, 3-(3-(((2-(Butyloxy)-2′-fluoro-5′-(methyloxy)-1,1′-biphenyl-4-yl)methyl)oxy)phenyl)propanoic acid], 1000 to 10000 nM.
As for `COc1cccc(-c2ccc(COc3cccc([C@@H](CC(=O)O)C(C)C)c3)cc2C(C)(C)C)c1` (single isomer, unassigned) [Example 58, (3S)-3-(3-(((2-(1,1-Dimethylethyl)-3′-(methyloxy)-1,1′-biphenyl-4-yl)methyl)oxy)phenyl)-4-methylpentanoic acid or (3R)-3-(3-(((2-(1,1-dimethylethyl)-3′-(methyloxy)-1,1′-biphenyl-4-yl)methyl)oxy)phenyl)-4-methylpentanoic acid], the figure is 1000 to 10000 nM; as for `COc1ccc(F)c(-c2ccc(COc3cccc([C@H](C)CC(=O)O)c3)cc2OC(C)C)c1` (single isomer, unassigned) [Example 31, (3R)-3-(3-(((2′-Fluoro-2-((1-methylethyl)oxy)-5′-(methyloxy)-1,1′-biphenyl-4-yl)methyl)oxy)phenyl)butanoic acid or (3S)-3-(3-(((2′-fluoro-2-((1-methylethyl)oxy)-5′-(methyloxy)-1,1′-biphenyl-4-yl)methyl)oxy)phenyl)butanoic acid], 100 to 1000 nM.
In the case of `CCCC(CC(=O)O)c1cccc(OCc2ccc(-c3cccc(OC)c3)c(C3CCCC3(C)C)c2)c1` (single isomer, unassigned) [Example 80.5], the concentration giving a half-maximal response (EC50) was in the range of 100 to 1000 nM.
In the case of `C=CC[C@H](CC(=O)O)c1cccc(OCc2ccc(-c3cc(OC)ccc3F)c(OCCCC)c2)c1` (single isomer, unassigned) [Example 54, (3R)-3-(3-(((2-(Butyloxy)-2′-fluoro-5′-(methyloxy)-1,1′-biphenyl-4-yl)methyl)oxy)phenyl)-5-hexenoic acid or (3S)-3-(3-(((2-(butyloxy)-2′-fluoro-5′-(methyloxy)-1,1′-biphenyl-4-yl)methyl)oxy)phenyl)-5-hexenoic acid], the EC50 fell in the range of 1000 to 10000 nM.
As for `COc1ccc(F)c(-c2ccc(COc3cccc(CCC(=O)O)c3)cc2C2CCCC2(C)C)c1` (stereo not shown) [Example 61.1, 3-(3-(((2-(2,2-Dimethylcyclopentyl)-2′-fluoro-5′-(methyloxy)-1,1′-biphenyl-4-yl)methyl)oxy)phenyl)propanoic acid], the figure is 100 to 1000 nM; as for `CCCC(CC(=O)O)c1cccc(OCc2ccc(-c3cc(OC)ccc3F)c(C(OC)C(C)(C)CC)c2)c1` (single isomer, unassigned) [Example 67.26], 1000 to 10000 nM; as for `COc1ccc(F)c(-c2ccc(COc3cccc([C@H](C)CC(=O)O)c3)cc2OC2CCCCO2)c1` (single isomer, unassigned) [Example 26, (3R)-3-(3-(((2′-Fluoro-5′-(methyloxy)-2-(tetrahydro-2H-pyran-2-yloxy)-1,1′-biphenyl-4-yl)methyl)oxy)phenyl)butanoic acid or (3S)-3-(3-(((2′-fluoro-5′-(methyloxy)-2-(tetrahydro-2H-pyran-2-yloxy)-1,1′-biphenyl-4-yl)methyl)oxy)phenyl)butanoic acid], 100 to 1000 nM.
`COc1ccc(F)c(-c2ccc(COc3cccc(C(CC(=O)O)CC4CC4)c3)cc2C(=O)C(C)(C)C)c1` (single isomer, unassigned) [Example 69.20, (3R)-4-Cyclopropyl-3-(3-(((2-(2,2-dimethylpropanoyl)-2′-fluoro-5′-(methyloxy)-1,1′-biphenyl-4-yl)methyl)oxy)phenyl)butanoic acid or (3S)-4-cyclopropyl-3-(3-(((2-(2,2-dimethylpropanoyl)-2′-fluoro-5′-(methyloxy)-1,1′-biphenyl-4-yl)methyl)oxy)phenyl)butanoic acid]: the EC50 lay in the range of 1000 to 10000 nM.
As for `COc1ccc(F)c(-c2cc(F)c(COc3cccc([C@@H](CC(=O)O)C4CC4)c3)cc2[C@@H]2CCCC2(C)C)c1` (single isomer, unassigned) [Example 66.45], the figure is 100 to 1000 nM; as for `C=C[C@H](CC(=O)O)c1cccc(OCc2ccc(-c3cc(OC)ccc3F)c(OCCCC)c2)c1` (single isomer, unassigned) [Example 16, (3S)-3-(3-(((2-(Butyloxy)-2′-fluoro-5′-(methyloxy)-1,1′-biphenyl-4-yl)methyl)oxy)phenyl)-4-pentenoic acid or (3R)-3-(3-(((2-(butyloxy)-2′-fluoro-5′-(methyloxy)-1,1′-biphenyl-4-yl)methyl)oxy)phenyl)-4-pentenoic acid], 1000 to 10000 nM.
In the case of `CCCCOc1cc(COc2cccc(C(C)CC(=O)O)c2)ccc1-c1cccc(SC)c1` (single isomer, unassigned) [Example 64.2, (3R)-3-(3-(((2-(Butyloxy)-3′-(methylsulfanyl)-1,1′-biphenyl-4-yl)methyl)oxy)phenyl)butanoic acid or (3S)-3-(3-(((2-(butyloxy)-3′-(methylsulfanyl)-1,1′-biphenyl-4-yl)methyl)oxy)phenyl)butanoic acid] it was 1000 to 10000 nM; in that of `CCC=C[C@H](CC(=O)O)c1cccc(OCc2ccc(-c3cc(OC)ccc3F)c(C(C)(C)C)c2)c1` (single isomer, unassigned) [Example 75, (3S)-3-(3-(((2-(1,1-Dimethylethyl)-2′-fluoro-5′-(methyloxy)-1,1′-biphenyl-4-yl)methyl)oxy)phenyl)-4-heptenoic acid or (3R)-3-(3-(((2-(1,1-dimethylethyl)-2′-fluoro-5′-(methyloxy)-1,1′-biphenyl-4-yl)methyl)oxy)phenyl)-4-heptenoic acid], 100 to 1000 nM.
